# Data taken from patent publication US20220315616A1, “MANGANESE CHELATE ISOMERS” (GE Healthcare AS, priority 2019, published 2022).
# How the values were obtained:
# [1] = Dissociation of manganese from the chelate in human serum (SEC with ICP-MS); assay type: in vitro ADME; conditions: for Percent dechelation in human serum: 37° C., protein bound manganese
# Experimental: (§1) Stability of Mn Chelate-5 stereoisomers in human serum was assessed in vitro by monitoring transfer of Mn from the chelate to blood proteins by a method employing size exclusion chromatography combined with online detection of manganese containing species by ICP-MS.
# The following method was used for measurement of dissociation of manganese from the manganese chelate in human serum.
# To human serum obtained from clotted blood (Sigma-Aldrich, 1900 μL) was added an aqueous solution of the manganese chelate (2 mM, 100 μL). The mixture was incubated at 37° C. At specific time points aliquots of 200 μL of test sample were mixed with saline (400 μL) and analysed by size exclusion chromatography (metal-free HPLC equipped with a column with separation range 5000-500000 Dalton) combined with online detection of manganese containing species by ICP-SF-MS. Percent dechelation was measured as area percent of the high molecular weight (protein) fraction. At regular intervals EDTA solution was run through the system to ensure low levels of background metal ions. Human serum was incubated with Mn(II)acetate and injected to identify the position of Mn-binding components in the high molecular weight region of the chromatogram.
# Four different stereoisomers of Mn Chelate-5 (RR, SS, SR and RS) were analysed in this assay.
# [2] = Mn-54 biodistribution study in rats; assay type: in vivo, Sprague-Dawley rats; conditions: rat, 7 d post injection; for % ID ± standard deviation, Brain: 0.62 mmol Mn/kg with ~30 μCi 54Mn labeled chelate, n = 4
# Experimental: In vivo stability of the different isomer pools was assessed via a ^54Mn radioactive biodistribution as Mn released in vivo is known to be retained in brain, bone and liver. The amount of Mn released in vivo was assessed for Mn Chelate-5 synthesized without stereochemical control, a 1:1 mix of (R,R)-Mn Chelate-5 and (S,S)-Mn Chelate 5 isomers, and (R,S)-Mn Chelate-5 isomer pool B using ^54Mn labeled material added to non-radiolabeled material. […] Rats were dosed with 0.62 mmol Mn Chelate-5/kg containing ˜30 μCi ^54Mn Chelate-5. The animals were sacrificed at 7 d post injection, organs of interest were collected, and the ^54Mn remaining in the organs was measured using a gamma counter. FIG. 4 is a plot showing % ID (injected dose)/organ 7 d post injection of a 0.62 mmol Mn Chelate-5/kg dose containing ˜[…] ^54Mn Chelate-5. Bars containing hashed lines represent % ID/organ at or below the limit of detection for the study. The results of statistical comparison of the % ID for each organ are summarized as p-values using either a one-way ANOVA Games-Howell comparison or a 2-way t-test as appropriate are shown for each organ.
# Method for preparation of Mn-54 labeled chelate for biodistribution studies. To a 3 mL glass vial fitted with a magnetic stir bar was added the manganese containing chelate (1 mg) and 1.0 M ammonium formate, pH=4 (0.5 mL). ^54MnCl2 in 1.0 M HCl (˜500 μCi) was then added and the resulting solution was heated at 40° C. for 16 h. The resulting solution was purified via preparative HPLC to remove unchelated Mn. The radioactive fraction was collected and evaporated to dryness in vacuo. The radioactive residue was taken up in water containing non-radioactive Mn chelate (0.310 M) such that ˜30 μCi of radioactivity was formulated in a dose of 0.620 mmol Mn/kg with an injection volume of 2 mL/kg.
# General method for Mn-54 biodistribution studies. […] 7 days post injection, the animals were sacrificed by CO2 immersion and organs and tissues of interest were removed and assayed for radioactivity using a Wizard 2480 gamma counter (Table 2).
# [3] = Trans-metalation with Zn (HPLC, % Mn chelate remaining); assay type: physicochemical; conditions: 2 mM chelate, 200 mM ZnCl2 in 15 mM ammonium formate, pH=4, 40° C.
# Experimental: as §1
# Method for assessing trans-metalation with Zn. Mn chelates were dissolved in aqueous solutions containing 200 mM ZnCl2 and 15 mM ammonium formate at either pH=4 to give a Mn chelate concentration of approx. 2 mM. The resulting solutions were incubated at 40° C. with mixing and aliquots were periodically analyzed by HPLC. The percent Mn containing chelate remaining in the solution was measured by integration at 265 nm.
# [4] = r1 and r2 relaxivities (Brüker mq60 relaxometer); assay type: physicochemical; conditions: in human serum at 60 MHz and 37° C.
# Excerpt: General method for measurement of r1 and r2 relaxivities. […] […] Linear fits (R^2>0.99 in all cases) of 1/T1 or 1/T2 as a function of Mn concentration gave r1 or r2 values respectively.
Structure (SMILES),Percent dechelation in human serum ([1]; incubation time 3 h),Percent dechelation in human serum ([1]; incubation time 24 h),Percent dechelation in human serum ([1]; incubation time 49 h),"Mn remaining in vivo in brain and bone vs 1:1 (S,S)/(R,R) mixture or Mn Chelate-5 without stereochemical control [2]","% ID ± standard deviation, Brain [2]",Rate of transmetallation with Zn (among Mn Chelate-5 stereoisomers) [3],r1 relaxivity [4],"Stability in human serum (percent dechelation curves, comparison of isomers) ([1]; 2 days total incubation at 37 °C)"
"CN1CCN2Cc3cccc(n3)CN(CC1)[C@H](CCC(=O)NC[C@H](O)[C@@H](O)[C@H](O)[C@H](O)CO)C(=O)[O][Mn][O]C(=O)[C@H]2CCC(=O)NC[C@H](O)[C@@H](O)[C@H](O)[C@H](O)CO [(R,R)-Mn Chelate-5]",0.6%,2.7%,3.6%,–,–,–,–,–
"CN1CCN2Cc3cccc(n3)CN(CC1)[C@@H](CCC(=O)NC[C@H](O)[C@@H](O)[C@H](O)[C@H](O)CO)C(=O)[O][Mn][O]C(=O)[C@H]2CCC(=O)NC[C@H](O)[C@@H](O)[C@H](O)[C@H](O)CO [(R,S)-Mn Chelate-5]",0.04%,0.11%,0.16%,significantly less Mn remaining in vivo,0.002 ± 0.0004% ID,significantly slower rate of transmetallation,6.0 mM⁻¹ s⁻¹,most stable
"CN1CCN2Cc3cccc(n3)CN(CC1)[C@@H](CCC(=O)NC[C@H](O)[C@@H](O)[C@H](O)[C@H](O)CO)C(=O)[O][Mn][O]C(=O)[C@@H]2CCC(=O)NC[C@H](O)[C@@H](O)[C@H](O)[C@H](O)CO [(S,S)-Mn Chelate-5]",0.3%,1.6%,2.4%,–,–,–,–,–
CN1CCN2Cc3cccc(n3)CN(CC1)C(CCC(=O)NC[C@H](O)[C@@H](O)[C@H](O)[C@H](O)CO)C(=O)[O][Mn][O]C(=O)C2CCC(=O)NC[C@H](O)[C@@H](O)[C@H](O)[C@H](O)CO (stereo partly shown) [Mn Chelate-5],–,–,–,–,0.005 ± 0.0004% ID,–,6.0 mM⁻¹ s⁻¹,–
